Patent US12258336B2, “Preparation of seimicarbazide-sensitive amine oxidase inhibitor and use thereof” (SHANGHAI ENNOVABIO PHARMACEUTICALS CO., LTD., priority 2018, dated 2025)
Like-named read-outs stand apart in the source and are kept apart here.

What was measured:
Format in all cases: in vivo
[1] = system: LPS-induced inflammatory disease model in rats; experiment: LPS-induced ocular inflammation model: protein concentration and cell number in aqueous humor; details: rat, LPS footpad injection, 6 mg/kg oral 1 h before induction, 24 hours after induction, mean±SEM
Experimental: (§1) 22 rats (7-8 weeks, 220-250 g) were divided into 3 groups, which were control group (6), model group (8) and compound treated group (8). For the model group and compound treated group, ocular inflammation was induced by a single injection of 8 μg/100 μL lipopolysaccharide (Sigma-Aldrich-L2880) into the footpad. The rats were grouped according to their body weight 1 h before induction. Example 4 compound (6 mg/kg, 10 mL/kg) or vehicle (10 mL/kg) were orally administered respectively. 24 hours after induction, the anterior aqueous humor was collected and the eyeballs were removed to dissect the retina. Ocular inflammation was quantitatively evaluated by measuring the protein concentration and cell number in the aqueous humor. qPCR method was used to verify changes in the expression of ocular retinal inflammation-related genes.
10 μL of aqueous humor was diluted in 40 μL of PBS and mixed, then 25 μL of mixture was mixed with 75 μL of PBS, and centrifuged at 300 g for 5 min at 4° C. 55 μL of supernatant was aspirated carefully and the protein concentration was determined according to the method described in the BCA Protein Assay Kit (Pierce-23227); after the remaining sample was resuspended, 40 μL of cell suspension was added into 100 μL of 1% FBS/PBS to analyze and count live cells using NovoCyte 3130 flow cytometry after excluding cell debris.

[2] = system: ALOX5AP, SOCS3 and TLR7 gene expression in retina; experiment: LPS-induced ocular inflammation model: qPCR of inflammation-related genes in retina; details: rat, 6 mg/kg oral, compared with model group
Experimental: as §1
• 1) Primers were synthesized, with the information shown as follows:
• 2) Retinal RNA was extracted according to operating instructions of RNA extraction kit (RNeasy Mini Kit, Qiagen-74104), and then the RNA was reverse-transcribed into cDNA (High Capacity cDNA Reverse Transcription Kits, ABI-4374966). The obtained cDNA was diluted 10 times to serve as qPCR reaction template. According to instructions of Power SYBR Green kit (ABI-A25918), qPCR reaction was performed on CFX384 Real-Time qPCR equipment. Quantitative analysis of expression changes for each gene expression was performed using CFX Maestro software by ΔΔCt method, with UBC as internal housekeeping gene.

SSAO/VAP-1 = biological target: T1, SSAO/VAP-1 (Rattus norvegicus, UniProt O08590); experiment: Inhibitory activity on SSAO/VAP-1 in animal tissues after oral administration; details: 24 hours post single administration, mean ± SEM
T1 construct: from tissue; host or cells: rat plasma, brain, retina, small intestine, lung, liver, kidney
T1 sequence (O08590 1-763): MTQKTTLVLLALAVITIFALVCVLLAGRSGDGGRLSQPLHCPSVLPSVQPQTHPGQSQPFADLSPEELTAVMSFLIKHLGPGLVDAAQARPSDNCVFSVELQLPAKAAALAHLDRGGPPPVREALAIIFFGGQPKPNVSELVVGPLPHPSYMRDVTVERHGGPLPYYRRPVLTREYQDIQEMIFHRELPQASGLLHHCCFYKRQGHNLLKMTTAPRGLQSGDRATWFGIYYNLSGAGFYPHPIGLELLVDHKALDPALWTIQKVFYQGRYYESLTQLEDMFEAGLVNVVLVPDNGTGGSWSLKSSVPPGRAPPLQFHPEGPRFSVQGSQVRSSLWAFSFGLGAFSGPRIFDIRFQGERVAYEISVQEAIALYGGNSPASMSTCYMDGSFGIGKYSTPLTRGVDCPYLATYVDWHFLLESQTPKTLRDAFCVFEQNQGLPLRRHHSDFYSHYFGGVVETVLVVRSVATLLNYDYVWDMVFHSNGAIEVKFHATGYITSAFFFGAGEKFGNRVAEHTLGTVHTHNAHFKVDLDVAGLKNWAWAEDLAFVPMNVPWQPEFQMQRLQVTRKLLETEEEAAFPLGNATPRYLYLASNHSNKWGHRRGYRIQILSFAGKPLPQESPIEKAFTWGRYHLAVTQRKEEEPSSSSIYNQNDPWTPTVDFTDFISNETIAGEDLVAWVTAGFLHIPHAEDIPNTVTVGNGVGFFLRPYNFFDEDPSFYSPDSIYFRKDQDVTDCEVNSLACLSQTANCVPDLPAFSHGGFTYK
Experimental: MAO-Glo Assay kit (Promega, V1402) was used to determine the activity of SSAO in animal tissues. After test compounds were adminstered to the animal, SSAO enzyme activity was calculated by measuring the activity of the monoamine oxidases in the animal tissue homogenate that was insensitive to MAO inhibitors Clogyline and Pargyline. The compounds were orally administered to rats at different doses, and same volume of vehicle was orally administered to control animals. Animal plasma, brain, retina, small intestine, lung, liver, and kidney were respectively collected 24 hours after administration (the animals were perfused with PBS before the collection of small intestine, lung, liver, and kidney) and stored in a −80° C. refrigerator until analysis. Each tissue was homogenized in tissue homogenate lysis buffer (20 mM HEPES, pH 7.4, 150 mM NaCl, 1 mM EDTA, 1 mM EGTA, 1% Triton X-100 and 1× Roche Complete protease inhibitor tablet). The homogenate was centrifuged at 12000 rpm at 4° C. for 30 minutes to remove tissue fragments. 5 μL of supernatant and 2 μL of mixture of Clogyline (10 μM) and Pargyline (10 μM) were incubated for 10 minutes at room temperature. Then 2 μL of substrate from MAO-Glo assay kit was added to the mixture, and reacted at room temperature for 60 minutes. Detection reagents were added to quench the reaction according to instructions. The fluorescein data was read by Biotek Neo2. The activity of monoamine oxidase in tissues that is not sensitive to MAO inhibitors was used to represent the activity of SSAO. Percentage of SSAO activity in administered animals was compared with that of control animals to calculate the compound inhibition rate.

[3] = brain, read-out: remaining SSAO activity percentage (SSAO activity %), Brain
[4] = kidney, read-out: remaining SSAO activity percentage (SSAO activity %), kidney
[5] = liver, read-out: remaining SSAO activity percentage (SSAO activity %), Liver
[6] = lung, read-out: remaining SSAO activity percentage (SSAO activity %), Lung
[7] = plasma, read-out: remaining SSAO activity percentage (SSAO activity %), Plasma
[8] = retina, read-out: remaining SSAO activity percentage (SSAO activity %), Retina
[9] = small intestine, read-out: remaining SSAO activity percentage (SSAO activity %), Small intestine

remaining activity at 0.005 mg/kg (SSAO/VAP-1; [3]): 98.3 ± 25.4%
remaining activity at 0.005 mg/kg (SSAO/VAP-1; [4]): 99.2 ± 4.1%
remaining activity at 0.005 mg/kg (SSAO/VAP-1; [5]): 108 ± 33.5%
remaining activity at 0.005 mg/kg (SSAO/VAP-1; [6]): 94.9 ± 17.2%
remaining activity at 0.005 mg/kg (SSAO/VAP-1; [7]): 61.7 ± 8.2%
remaining activity at 0.005 mg/kg (SSAO/VAP-1; [8]): 65 ± 14%
remaining activity at 0.025 mg/kg (SSAO/VAP-1; [3]): 143 ± 68.3%
remaining activity at 0.025 mg/kg (SSAO/VAP-1; [4]): 58.7 ± 12.1%
remaining activity at 0.025 mg/kg (SSAO/VAP-1; [5]): 14.4 ± 8.1%
remaining activity at 0.025 mg/kg (SSAO/VAP-1; [6]): 64 ± 20.3%
remaining activity at 0.025 mg/kg (SSAO/VAP-1; [7]): 58.6 ± 4.2%
remaining activity at 0.025 mg/kg (SSAO/VAP-1; [8]): 49.1 ± 7.1%
remaining activity at 0.12 mg/kg (SSAO/VAP-1; [3]): 75.4 ± 7.4%
remaining activity at 0.12 mg/kg (SSAO/VAP-1; [4]): 46.3 ± 3.5%
remaining activity at 0.12 mg/kg (SSAO/VAP-1; [5]): 40.1 ± 8.2%
remaining activity at 0.12 mg/kg (SSAO/VAP-1; [6]): 39.8 ± 11.3%
remaining activity at 0.12 mg/kg (SSAO/VAP-1; [7]): 33.7 ± 1.9%
remaining activity at 0.12 mg/kg (SSAO/VAP-1; [8]): 25.1 ± 5.3%
remaining activity at 0.12 mg/kg (SSAO/VAP-1; [9]): 96.9 ± 21.7%
remaining activity at 0.6 mg/kg (SSAO/VAP-1; [3]): 26.5 ± 11.8%
remaining activity at 0.6 mg/kg (SSAO/VAP-1; [4]): 26.2 ± 10.1%
remaining activity at 0.6 mg/kg (SSAO/VAP-1; [5]): 3 ± 7.6%
remaining activity at 0.6 mg/kg (SSAO/VAP-1; [6]): 14.1 ± 3.8%
remaining activity at 0.6 mg/kg (SSAO/VAP-1; [7]): 12.9 ± 2.2%
remaining activity at 0.6 mg/kg (SSAO/VAP-1; [8]): 8 ± 1.2%
remaining activity at 0.6 mg/kg (SSAO/VAP-1; [9]): 38.9 ± 3.2%
remaining activity at 3 mg/kg (SSAO/VAP-1; [3]): 22.1 ± 7.7%
remaining activity at 3 mg/kg (SSAO/VAP-1; [4]): 0.7 ± 1.8%
remaining activity at 3 mg/kg (SSAO/VAP-1; [5]): 5.3 ± 3.2%
remaining activity at 3 mg/kg (SSAO/VAP-1; [6]): 4.6 ± 2.5%
remaining activity at 3 mg/kg (SSAO/VAP-1; [7]): 1.8 ± 0.2%
remaining activity at 3 mg/kg (SSAO/VAP-1; [8]): 5.2 ± 2.4%
remaining activity at 3 mg/kg (SSAO/VAP-1; [9]): 11.1 ± 4.4%
remaining activity at 15 mg/kg (SSAO/VAP-1; [3]): 4 ± 1.7%
remaining activity at 15 mg/kg (SSAO/VAP-1; [4]): 2.4 ± 1.3%
remaining activity at 15 mg/kg (SSAO/VAP-1; [5]): -2.4 ± 5.4%
remaining activity at 15 mg/kg (SSAO/VAP-1; [6]): 2.2 ± 0.2%
remaining activity at 15 mg/kg (SSAO/VAP-1; [7]): 1.1 ± 0.4%
remaining activity at 15 mg/kg (SSAO/VAP-1; [8]): 3 ± 2.2%
remaining activity at 15 mg/kg (SSAO/VAP-1; [9]): 1.1 ± 0.9%
SMILES: NC/C(=C\F)COc1cnc(N2CCN(C3COC3)CC2)nc1 [Example 4, (E)-3-fluoro-2-(((2-(4-(oxbutan-3-yl)piperazin-1-yl)pyrimidin-5-yl)oxo)methyl)prop-2-en-1-amine]
cell number in aqueous humor ([1]; model group 48.28±21.46): 5.07±0.80 *10^4 cell/mL
protein concentration in aqueous humor ([1]; model group 9730.04±1232.30): 7275.44 ± 622.66 µg/mL
expression level of ALOX5AP gene in retina [2]: significantly reduce
expression level of SOCS3 gene in retina [2]: significantly reduce
expression level of TLR7 gene in retina [2]: significantly reduce
